Data reported in ChEMBL document CHEMBL5137018, “Pyranochromones with Anti-Inflammatory Activities in Arthritis from Calophyllum membranaceum” (J Nat Prod, 2022).
Active and inactive are the calls of the source. No cut-off for these calls is given here.

What was measured:
RAW264.7 [1] = experiment: Cytotoxicity against mouse RAW264.7 cells assessed as effect on cell viability measured after 12 hrs by MTT assay; format: functional
RAW264.7 [2] = experiment: Antiinflammatory activity in mouse RAW264.7 assessed as inhibition of LPS-induced NO production preincubated for 12 hrs followed by LPS stimulation and measured after 6 hrs by Griess reagent based assay; format: functional, cell-based
Mus musculus [3] = experiment: Antiinflammatory activity in carrageenan-induced acute arthritis ICR mouse assessed as reduction in paw swelling at 10 to 20 mg/kg, po for 10 days followed by carrageenan stimulation and measured upto 6 hrs by vernier caliper method; format: functional, organism-based; conditions: dose 10-20 mg/kg, time 10.0 day
Mus musculus [4] = experiment: Antiinflammatory activity in carrageenan-induced acute arthritis ICR mouse assessed as reduction in relative neutrophil to lymphocyte ratio at 10 mg/kg, po for 10 days followed by carrageenan stimulation and measured upto 6 hrs by hematology analyzer; format: functional; conditions: time 10 day
Mus musculus [5] = experiment: Antiinflammatory activity in carrageenan-induced acute arthritis ICR mouse assessed as reduction in relative neutrophil to lymphocyte ratio at 20 mg/kg, po for 10 days followed by carrageenan stimulation and measured upto 6 hrs by hematology analyzer; format: functional; conditions: time 10 day
Mus musculus [6] = experiment: Antiinflammatory activity in carrageenan-induced acute arthritis ICR mouse assessed as downregulation of IL-2 secretion in plasma measured at 10 to 20 mg/kg, po for 10 days followed by carrageenan stimulation and measured after 6 hrs by ELISA; format: functional, organism-based; conditions: dose 10-20 mg/kg, time 10.0 day, DDE = dose-dependent effect
Mus musculus [7] = experiment: Antiinflammatory activity in carrageenan-induced acute arthritis ICR mouse assessed as downregulation of IL-4 secretion in plasma measured at 10 to 20 mg/kg, po for 10 days followed by carrageenan stimulation and measured after 6 hrs by ELISA; format: functional, organism-based; conditions: dose 10-20 mg/kg, time 10.0 day, DDE = dose-dependent effect
Mus musculus [8] = experiment: Antiinflammatory activity in carrageenan-induced acute arthritis ICR mouse assessed as downregulation of IL-5 secretion in plasma measured at 10 to 20 mg/kg, po for 10 days followed by carrageenan stimulation and measured after 6 hrs by ELISA; format: functional, organism-based; conditions: dose 10-20 mg/kg, time 10.0 day, DDE = dose-dependent effect
RAW264.7 [9] = experiment: Antiinflammatory activity in mouse RAW264.7 cells assessed as increase in IKK alpha phosphorylation at 0.1 to 5 uM preincubated for 12 hrs followed by LPS stimulation and measured after 24 hrs by western blot assay; format: functional, cell-based; conditions: dose 0.1-5 µM, time 36.0 hrs, DDE = dose-dependent effect
RAW264.7 [10] = experiment: Antiinflammatory activity in mouse RAW264.7 cells assessed as increase in IKK beta phosphorylation at 0.1 to 5 uM preincubated for 12 hrs followed by LPS stimulation and measured after 24 hrs by western blot assay; format: functional, cell-based; conditions: dose 0.1-5 µM, time 36.0 hrs, DDE = dose-dependent effect
RAW264.7 [11] = experiment: Antiinflammatory activity in mouse RAW264.7 cells assessed as suppression of NF-kappa B expression at 0.1 to 5 uM preincubated for 12 hrs followed by LPS stimulation and measured after 24 hrs by western blot assay; format: functional, cell-based; conditions: dose 0.1-5 µM, time 36.0 hrs, DDE = dose-dependent effect
[12] = target: T1, Toll-like receptor 4 (Mus musculus) (UniProt Q9QUK6); experiment: Binding affinity to mouse TLR4 in RAW264.7 cells assessed as thermal stabilization at 1 uM and measured after 12 hrs by CETSA analysis; format: cell-based
T1 sequence (whole entry): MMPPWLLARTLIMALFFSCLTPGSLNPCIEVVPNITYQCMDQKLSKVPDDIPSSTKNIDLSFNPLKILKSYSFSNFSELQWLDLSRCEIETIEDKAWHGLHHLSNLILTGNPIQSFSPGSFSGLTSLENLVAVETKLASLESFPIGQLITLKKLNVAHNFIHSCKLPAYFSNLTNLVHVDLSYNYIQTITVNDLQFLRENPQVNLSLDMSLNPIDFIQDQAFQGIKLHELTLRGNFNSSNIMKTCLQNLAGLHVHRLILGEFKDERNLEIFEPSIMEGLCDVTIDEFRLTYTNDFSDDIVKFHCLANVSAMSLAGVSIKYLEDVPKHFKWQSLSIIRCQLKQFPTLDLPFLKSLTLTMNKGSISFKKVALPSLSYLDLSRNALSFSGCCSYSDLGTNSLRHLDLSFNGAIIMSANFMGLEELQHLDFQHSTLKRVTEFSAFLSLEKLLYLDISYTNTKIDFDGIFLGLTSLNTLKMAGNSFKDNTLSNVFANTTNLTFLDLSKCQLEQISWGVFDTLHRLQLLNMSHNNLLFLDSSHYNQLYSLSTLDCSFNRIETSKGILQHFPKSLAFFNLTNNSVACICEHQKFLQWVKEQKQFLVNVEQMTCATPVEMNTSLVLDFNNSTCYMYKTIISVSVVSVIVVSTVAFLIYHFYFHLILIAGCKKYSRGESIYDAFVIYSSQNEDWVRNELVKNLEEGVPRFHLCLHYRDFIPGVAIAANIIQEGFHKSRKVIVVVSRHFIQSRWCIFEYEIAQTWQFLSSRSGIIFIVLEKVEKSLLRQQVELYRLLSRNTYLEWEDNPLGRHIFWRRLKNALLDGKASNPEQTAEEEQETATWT

RAW264.7 [13] = experiment: Antiinflammatory activity in LPS induced mouse RAW264.7 cells assessed as downregulation of IL-2 secretion at 0.1 to 5 uM incubated for 12 hrs followed by LPS stimulation and measured after 24 hrs by ELISA; format: functional, cell-based; conditions: dose 0.1-5 µM, time 36.0 hrs, DDE = dose-dependent effect
RAW264.7 [14] = experiment: Antiinflammatory activity in LPS induced mouse RAW264.7 cells assessed as downregulation of IL-4 secretion at 0.1 to 5 uM incubated for 12 hrs followed by LPS stimulation and measured after 24 hrs by ELISA; format: functional, cell-based; conditions: dose 0.1-5 µM, time 36.0 hrs, DDE = dose-dependent effect
RAW264.7 [15] = experiment: Antiinflammatory activity in LPS induced mouse RAW264.7 cells assessed as downregulation of IL-5 secretion at 0.1 to 5 uM incubated for 12 hrs followed by LPS stimulation and measured after 24 hrs by ELISA; format: functional, cell-based; conditions: dose 0.1-5 µM, time 36.0 hrs, DDE = dose-dependent effect

SMILES | IC50 (RAW264.7 [2]) [µM] | CC50 (RAW264.7 [1]) [µM] | also measured
CCCC(CC(=O)OC)c1c2c(c(O)c3c1O[C@H](C)[C@@H](C)C3=O)C=CC(C)(C)O2 (stereo partly drawn) | 5.14 | 649 | 
COC(=O)C[C@@H](c1ccccc1)c1c(O)c2c(c3c1OC(C)(C)C=C3)O[C@H](C)[C@H](C)C2=O | 11.3 | 601 | 
C[C@@H]1Oc2c3c(c([C@@H](CC(=O)O)c4ccccc4)c(O)c2C(=O)[C@@]1(C)O)OC(C)(C)C=C3 | 8.23 | 588 | 
CCC[C@@H](CC(=O)OC)c1c(O)c2c(c3c1OC(C)(C)C=C3)O[C@@H](C)[C@H](C)C2=O | 2.91 | 698 | 
CC/C=C\C[C@H](CC(=O)O)c1c2c(c(O)c3c1O[C@@H](C)[C@H](C)C3=O)C=CC(C)(C)O2 | 18.4 | 550 | 
C[C@@H]1C(=O)c2c(O)c([C@@H](CC(=O)O)c3ccccc3)c3c(c2O[C@@H]1C)C=CC(C)(C)O3 (single isomer, unassigned) | 11.3 | 583 | 
C[C@@H]1Oc2c(c(O)c3c(c2[C@@H](CC(=O)O)c2ccccc2)OC(C)(C)C=C3)C(=O)[C@H]1C | 13.8 | 569 | 
C[C@H](C(=O)c1c(O)c2c(c3c1OC(=O)C[C@H]3c1ccccc1)OC(C)(C)C=C2)[C@@H](C)O | 10.1 | 507 | 
C[C@H]1Oc2c(c(O)c3c(c2[C@@H](CC(=O)O)c2ccccc2)OC(C)(C)C=C3)C(=O)[C@@H]1C | 12.6 | 524 | 
CCCC1CC(=O)Oc2c(C(=O)[C@H](C)[C@H](C)O)c(O)c3c(c21)OC(C)(C)C=C3 (stereo partly drawn) | 8.42 | 552 | 
COC(=O)C[C@@H](c1ccccc1)c1c2c(c(O)c3c1O[C@@H](C)[C@H](C)C3=O)C=CC(C)(C)O2 | 12.5 | 594 | 
C[C@H](O)[C@H](C)C(=O)c1c(O)c2c(c3c1OC(=O)C[C@H]3c1ccccc1)OC(C)(C)C=C2 | 9.34 | 517 | 

Continued, in another order:

IC50 (RAW264.7 [2]) [µM] | SMILES | CC50 (RAW264.7 [1]) [µM] | also measured
4.05 | CCCCCC(CC(=O)OC)c1c2c(c(O)c3c1O[C@H](C)[C@@H](C)C3=O)C=CC(C)(C)O2 (stereo partly drawn) | 687 | 
0.92 | CCCCC[C@H](CC(=O)OC)c1c(O)c2c(c3c1OC(C)(C)C=C3)O[C@H](C)[C@H](C)C2=O | 660 | Activity (Mus musculus [3]): Active; Ratio (Mus musculus [4]): 0.89; Ratio (Mus musculus [5]): 0.74; Activity (Mus musculus [6]): Dde; Activity (Mus musculus [7]): Dde; Activity (Mus musculus [8]): Dde; Activity (RAW264.7 [9]): Dde; Activity (RAW264.7 [10]): Dde; Activity (RAW264.7 [11]): Dde; Activity [12]: Active; Activity (RAW264.7 [13]): Dde; Activity (RAW264.7 [14]): Dde; Activity (RAW264.7 [15]): Dde
7.43 | CCCCC(CC(=O)O)c1c2c(c(O)c3c1O[C@H](C)[C@@H](C)C3=O)C=CC(C)(C)O2 (stereo partly drawn) | 654 | 
8.44 | CCCC(CC(=O)O)c1c2c(c(O)c3c1O[C@H](C)[C@@H](C)C3=O)C=CC(C)(C)O2 (stereo partly drawn) | 663 | 
4.23 | CCCC[C@H](CC(=O)OC)c1c2c(c(O)c3c1O[C@@H](C)[C@H](C)C3=O)C=CC(C)(C)O2 | 574 | 
6.88 | CCCCCC(CC(=O)O)c1c2c(c(O)c3c1O[C@H](C)[C@@H](C)C3=O)C=CC(C)(C)O2 (stereo partly drawn) | 668 | 
20.3 | CNC(=N)NCCC[C@H](N)C(=O)O [TILARGININE ACETATE] | 214 | 
5.17 | CCCCC[C@H](CC(=O)O)c1c(O)c2c(c3c1OC(C)(C)C=C3)O[C@H](C)[C@H](C)C2=O | 636 | 
